SMILES strings stand for the structures. Read-outs that look alike come from different tables or passages of the source.

The nature of one data set: in vitro. Type of data set: in vitro ADME. Particulars: pH 7.4, 0.5 μM compound, 0.25 mg/mL microsomes. On the procedure:
The metabolic stability of the cytochalasins was evaluated in human pooled liver human microsomes (20 mg/ml, GIBCO) and pooled liver CD1 mouse microsomes (20 mg/ml, GIBCO). Test cytochalasins were prepared at a concentration of 0.5 μM and incubated with 0.25 mg/mL liver microsomes at pH 7.4), and the DMSO concentration was lower than 1%. The reaction was started by adding the cofactor NADPH at […]. Samples were taken at time point 0 (immediately following the addition of the co-factor), 5, 10, 20, 30 and 60 minutes. The reaction was stopped by adding quench solution containing acetonitrile:methanol (1:1) (internal standard tolbutamide at 50 nM). The samples were centrifuged (3500 rpm/30 min.) to obtain the pellet of precipitated microsomal protein. The supernatant fractions were quantified by LC-MS/MS (liquid chromatography-tandem mass spectrometry) Prominence UFLC (Shimadzu Corporation, Kyoto, Japan) and interfaced with an LCMS-8045 triple quadrupole mass spectrometer (Shimadzu Corporation, Kyoto, Japan) with an electrospray ionization source (ESI). The peak area ratios (analyte/internal standard) were converted to the % remaining using the area ratio at time 0 as 100%. The half-life (t1/2 = ln(2)/k) in minutes and intrinsic clearance (Clint = k x 1000/(0.25)) in μL/min/mg were calculated using a nonlinear regression from the % remaining versus the incubation time. From this plot, the slope (k) was determined. The chromatogram for analysis was obtained on a Supelco Ascentis express C18 column (3 cm x 2.1 mm, 5 μM). The mobile phases consisted of water + 0.1% formic acid (A) and acetonitrile + 0.1% formic acid (B). The mobile phase was eluted in binary gradient mode, and the gradient was as follows: 0 min, 95% A; 0.05 mins. 95% A; 0.3 mins: 2% A; 0.7 mins: 2% A; 0.8 mins: 95% A; 1.15 mins 95% A; and 2.0 mins 95% A. The run time was 2 minutes, the sample injection volume was 10 μL, and the flow rate was 0.7 mL/min.

The subject of data set [1] is L. infantum promastigotes. Nature of the data set: Leishmanicidal assay using L. infantum promastigotes (resazurin). The data set is classed as cell-based, Leishmania infantum. Particulars: 20–2.5 μM, 24 h, Fig 2C. On the procedure:
Promastigotes of L. infantum (1x10^6 parasites/well) were distributed in 96-well plates, and the test compounds (cytochalasins A-D) were added at concentrations of 20–2.5 μM. The plates were incubated under the same conditions as previously described for 24 h. The leishmanicidal activity was determined by adding 20 μL of resazurin (Sigma-Aldrich), and the plates were incubated for 4 h. The absorbance was measured at 536 and 588 nm in an automated SpectraMax Gemini microplate reader, and the data were analysed using GraphPad Prism version 8.0 for the CC50 value calculation. The percentage of nonviable parasites was determined and compared to the negative control wells.
On the technique in general: Resazurin is reduced to fluorescent resorufin, in cell work by metabolically active cells.

Where [2] appears, read: CD1, mouse, read-out: Mouse liver microsome (MsLM) CLint(mic).
[3] abbreviates: human, read-out: Human liver microsome (HLM) CLint(mic).

With `C=C1[C@@H](C)[C@H]2[C@H](Cc3ccccc3)NC(=O)[C@]23OC(=O)/C=C/C(=O)CCC[C@@H](C)C/C=C/[C@H]3[C@@H]1O` [Cytochalasin A], the microsomal CLint in “in vitro” (setting [2]) stood at 167 ± 9.12 µL/min/mg; in the data set “in vitro” (setting [3]), 7.86 ± 2.05 µL/min/mg. For the same molecule, the “toxicity to L. infantum promastigote parasites” value in data set [1] is “toxic”.

In the case of `C=C1[C@@H](C)[C@H]2[C@H](Cc3ccccc3)NC(=O)[C@]23OC(=O)/C=C/[C@H](O)CCC[C@@H](C)C/C=C/[C@H]3[C@@H]1O` [Cytochalasin B], the results for the microsomal CLint in “in vitro” (setting [2]) and in “in vitro” (setting [3]) were 62.9 µL/min/mg and 217 ± 6.05 µL/min/mg, respectively.

For the molecule `CC(=O)OC1C=CC(C)(O)C(=O)C(C)CC=CC2C(O)C(C)=C(C)C3C(Cc4ccccc4)NC(=O)C123` (centres unmarked) [Cytochalasin C], the microsomal CLint in the data set “in vitro” (setting [3]) was 144 ± 15.8 µL/min/mg. For the same molecule, in data set [1], the “toxicity to L. infantum promastigote parasites” value is on record as “toxic”.

For the molecule `C=C1[C@@H](C)[C@H]2[C@H](Cc3ccccc3)NC(=O)[C@]23[C@H](OC(C)=O)/C=C/[C@@](C)(O)C(=O)[C@@H](C)C/C=C/[C@H]3[C@@H]1O` [Cytochalasin D], the microsomal CLint in the data set “in vitro” (setting [2]) is 163 ± 22.4 µL/min/mg.
